In patent publication US7786175B2, “Anti-atherosclerosis composition containing carotenoids and method for inhibiting LDL oxidation” (Lycored Natural Products, priority 2001, dated 2010):

How the values were obtained:
[1] = test system: LDL; test: Copper ion-induced LDL oxidation, lipid peroxides assay; format: biochemical; conditions: for effect on LDL oxidation (lipid peroxides), in words: single compounds at low concentration mimicking Lyc-O-Mato: lycopene 10 μg/ml, vitamin E 2.5 μg/ml, β-carotene 0.4 μg/ml
Experimental: (§1) All studied compounds were dissolved in THF to a stock solution of 1 mg/ml. LDL was dialyzed for 24 hours against phosphate buffered-saline (PBS) prior to its oxidation to remove any EDTA that can interfere with the oxidation. LDL (100 μg protein/ml), was incubated in the absence (Control) or presence of increasing concentrations of each one of the studied compounds, as well as, in various combinations including 2, 3 or the 4 constituents at the desired natural distribution. LDL oxidation was induced by the addition of 5 μM of CuSO4, for 2 hours at 37° C. LDL oxidation was terminated by adding 1 mM Na2 EDTA and immediate refrigeration at 4° C. The extent of LDL oxidation was then determined by measuring the amount of thiobarbituric acid reactive substances (TBARS) and of lipid peroxides (PD) formed. Control LDL was supplemented with only THF.
(§2) LDL (100 μg of protein/mL) was pre-incubated for 30 minutes at 37° C. with increasing concentrations of crystalline pure lycopene, or with tomato oleoresin (at equivalent lycopene concentrations), followed by a further incubation for 2 hours at 37° C. in the presence of 5 μmol/L of CuSO4. LDL oxidation was measured by the TBARS (A) or by the lipid peroxides (B) assays respectively. Results are given as mean±SD (n=3). Addition of increasing concentrations of lycopene inhibited copper ion-induced LDL oxidation moderately, in a dose-dependent manner.

[2] = test system: LDL; test: Copper ion-induced LDL oxidation, TBARS assay; format: biochemical; conditions: for effect on LDL oxidation (TBARS), in words: single compounds at low concentration mimicking Lyc-O-Mato: lycopene 10 μg/ml, vitamin E 2.5 μg/ml, β-carotene 0.4 μg/ml
Experimental: as §1, §2

[3] = 50 μmol/L of lycopene, LDL 100 μg of protein/mL, 5 μmol/L CuSO4, 2 hours at 37° C.

Molecule | effect on LDL oxidation (lipid peroxides), in words [1] | effect on LDL oxidation (TBARS), in words [2] | maximal inhibition in lipid peroxides formation [1, 3] [%] | maximal inhibition in TBARS formation [2, 3] [%] | effect on LDL oxidation, in words ([2]; Example 5: β-carotene alone or in combination with vitamin E)
vitamin E | did not significantly affect LDL oxidation | did not significantly affect LDL oxidation | – | – | –
CC(C)=CCC/C(C)=C/C=C/C(C)=C/C=C/C(C)=C/C=C/C=C(C)/C=C/C=C(C)/C=C/C=C(\C)CCC=C(C)C [lycopene] | did not significantly affect LDL oxidation | did not significantly affect LDL oxidation | 27 | 22 | –
CC1=C(/C=C/C(C)=C/C=C/C(C)=C/C=C/C=C(C)/C=C/C=C(C)/C=C/C2=C(C)CCCC2(C)C)C(C)(C)CCC1 [β-carotene] | did not significantly affect LDL oxidation | did not significantly affect LDL oxidation | – | – | did not affect at all LDL oxidation
